From patent US20240279220A1, “INDOLE COMPOUNDS AND METHODS OF USE” (Genzyme Corporation, priority 2021, published 2024)

Assays:
CFTR = biological target: T1, CFTR (Homo sapiens, UniProt P13569, DEL508-508); assay: TECC24 recording of CFTR-mediated transepithelial chloride transport in ΔF508 homozygous CF-HBE cells; format: cell-based; settings: 10 μM test agent, 48 hours incubation, AUC of forskolin-stimulated IEQ divided by vehicle AUC, primary CF-HBE cells
T1 construct: Primary human bronchial epithelial cells from a ΔF508 homozygous CF donor; host or cells: primary human bronchial epithelial cells (CF-HBE), ΔF508 homozygous donor
Experimental: The effects of a test agent on CFTR-mediated transepithelial chloride transport was measured using TECC24 recording analysis. Test agents were solubilized in DMSO. Solubilized test agents were mixed with incubation medium containing DMEM/F12, Ultroser G (2%; Crescent Chemical, catalog #67042), Hyclone Fetal Clone II (2%; GE Healthcare, catalog #SH30066.02), bovine brain extract (0.25%; Lonza, catalog #CC-4098), insulin (2.5 μg/mL), IL-13 (10 ng/mL), hydrocortisone (20 nM), transferrin (2.5 μg/mL), triiodothyronine (500 nM), ethanolamine (250 nM), epinephrine (1.5 μM), phosphoethanolamine (250 nM), and retinoic acid (10 nM). Primary human bronchial epithelial cells from a ΔF508 homozygous CF donor (CF-HBE cells; from University of North Carolina Cystic Fibrosis Tissue Procurement Center), grown on Transwell HTS 24-well cell culture inserts (Costar, catalog #3378), were exposed to test agents or controls dissolved in incubation medium. The CF-HBE cells were cultured at 36.5° C. for 48 hours before TECC24 recordings were performed in the presence or absence of test agent, a positive control or vehicle (DMSO).
Following incubation, the transwell cell culture inserts containing the test agent or control-treated CF-HBE cells were loaded onto a TECC24 apparatus (TECC v7 or MTECC v2; EP Design) to record the transepithelial voltage (VT) and resistance (TEER) using 4 AgCl electrodes per well configured in current-clamp mode. The apical and basolateral bath solutions both contained (in mM) 140 NaCl, 5 KCl, 2 CaCl2, 1 MgCl2, 10 Hepes, and 10 glucose (adjusted to pH 7.4 with NaOH). To inhibit basal Na+ absorption, the ENaC inhibitor benzamil (10 μM) was added to the bath. Then, the adenylate cyclase activator, forskolin (10 μM), was added to the bath to activate CFTR. The forskolin-stimulated Cl— transport was halted by addition of CFTR inhibitor-172 (20 μM) to the bath at the end of the experiment to confirm specificity. VT and TEER recordings were digitally acquired at routine intervals using TECC or MTECC software (EP Design). VT and TEER were transformed into equivalent transpeithelial Cl— current (IEQ), and the Area Under the Curve (AUC) of the IEQ timecourse between forskolin and CFTR inhibitor-172 addition is generated using Excel (Microsoft). Efficacy is expressed as the ratio of the test agent AUC divided by vehicle AUC. EC50s based on AUC are generated using the non-linear regression log(agonist) vs. response function in Prism software (Graphpad) with HillSlope fixed=1.
If a test agent increased the AUC of the forskolin-stimulated IEQ relative to vehicle in CF-HBE cells, and this increase was inhibited by CFTR inhibitor-172, then the test agent was considered a CFTR corrector.

NBD1/3D = assay: Aggregation analysis using differential static light scattering (DSLS), NBD1 thermal stability; format: binding, Human; settings: ΔTagg versus DMSO control; compound at 100 μM
Procedure, shortened: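 Purified NBD1 at 0.2 mg/ml in S200 buffer (pH 7.6, 2 mM ATP, 5 mM MgCl2, 1% glycerol) was heated with compound at 1 °C/min to 70 °C. Tagg taken from the light-scattering curve inflection point; ΔTagg = compound Tagg minus mean DMSO control Tagg.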

T1 sequence (P13569 with tags, fused parts or gaps DEL508-508): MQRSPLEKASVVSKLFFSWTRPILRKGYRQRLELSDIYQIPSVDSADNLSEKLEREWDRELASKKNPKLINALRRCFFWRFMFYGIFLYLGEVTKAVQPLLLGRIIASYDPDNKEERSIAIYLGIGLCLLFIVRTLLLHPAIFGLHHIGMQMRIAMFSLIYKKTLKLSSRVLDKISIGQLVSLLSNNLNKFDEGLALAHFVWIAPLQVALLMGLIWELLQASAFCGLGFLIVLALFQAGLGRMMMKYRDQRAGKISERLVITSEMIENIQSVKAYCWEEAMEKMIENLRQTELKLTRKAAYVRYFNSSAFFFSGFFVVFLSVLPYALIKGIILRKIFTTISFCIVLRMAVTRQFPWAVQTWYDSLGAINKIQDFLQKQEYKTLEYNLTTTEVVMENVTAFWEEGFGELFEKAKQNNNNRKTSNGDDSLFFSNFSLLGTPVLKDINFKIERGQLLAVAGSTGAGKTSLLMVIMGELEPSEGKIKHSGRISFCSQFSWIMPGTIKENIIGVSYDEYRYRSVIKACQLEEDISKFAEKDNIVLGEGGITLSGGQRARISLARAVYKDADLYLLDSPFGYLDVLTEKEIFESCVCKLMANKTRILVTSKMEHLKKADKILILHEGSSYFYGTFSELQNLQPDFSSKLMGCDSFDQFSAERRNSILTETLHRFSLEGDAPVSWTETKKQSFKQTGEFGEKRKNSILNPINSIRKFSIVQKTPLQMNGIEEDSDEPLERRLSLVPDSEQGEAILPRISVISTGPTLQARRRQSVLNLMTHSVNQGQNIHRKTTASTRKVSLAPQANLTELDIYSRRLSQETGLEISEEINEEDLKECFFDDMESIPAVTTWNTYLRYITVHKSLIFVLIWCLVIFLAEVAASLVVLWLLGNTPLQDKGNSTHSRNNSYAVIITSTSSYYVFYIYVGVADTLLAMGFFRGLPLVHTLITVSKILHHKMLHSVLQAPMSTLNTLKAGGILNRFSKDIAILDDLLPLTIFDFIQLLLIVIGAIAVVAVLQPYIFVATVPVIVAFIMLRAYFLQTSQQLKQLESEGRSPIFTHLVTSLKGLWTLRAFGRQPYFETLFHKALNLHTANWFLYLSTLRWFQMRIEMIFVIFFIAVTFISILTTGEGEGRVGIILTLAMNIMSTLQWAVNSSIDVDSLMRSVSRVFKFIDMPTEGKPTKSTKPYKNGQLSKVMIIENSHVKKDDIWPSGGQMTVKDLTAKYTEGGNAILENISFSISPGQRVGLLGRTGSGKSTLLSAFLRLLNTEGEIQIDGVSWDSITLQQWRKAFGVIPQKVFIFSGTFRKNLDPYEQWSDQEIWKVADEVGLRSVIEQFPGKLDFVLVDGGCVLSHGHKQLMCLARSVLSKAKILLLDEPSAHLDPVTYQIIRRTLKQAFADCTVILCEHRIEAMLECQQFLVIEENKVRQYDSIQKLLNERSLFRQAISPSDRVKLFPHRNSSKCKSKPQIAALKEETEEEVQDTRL

Row | TECC24 @ 10 μM over DMSO (AUC fold over DMSO) (CFTR) | Compound | DSLS NBD1/3D Human Stability delta-T (° C.) @ 100 (μM) (NBD1/3D)
1 | A (“A” refers to AUC @10 uM >= 12) | CC(c1cnc(-c2cc(Oc3c(F)cc4[nH]ccc4c3CN3CCCS3(=O)=O)ccc2F)[nH]1)c1cccc(CCC(=O)O)c1F (single isomer, unassigned) [Example 134B, 3-(3-(1-(2-(5-((4-((1,1-dioxidoisothiazolidin-2-yl)methyl)-6-fluoro-1H-indol-5-yl)oxy)-2-fluorophenyl)-1H-imidazol-5-yl)ethyl)-2-fluorophenyl)propanoic acid] | A (A: T ≥ 10° C.)
2 | C (“C” refers to AUC @ 10 uM <= 4) | CC(c1cnc(-c2cc(Oc3c(F)cc4[nH]ccc4c3CCP(C)(C)=O)ccc2F)[nH]1)c1cccc(CCC(=O)O)c1F (single isomer, unassigned) [Example 135A, 3-(3-(1-(2-(5-((4-(2-(dimethylphosphoryl)ethyl)-6-fluoro-1H-indol-5-yl)oxy)-2-fluorophenyl)-1H-imidazol-5-yl)ethyl)-2-fluorophenyl)propanoic acid] | A (A: T ≥ 10° C.)
3 | A (“A” refers to AUC @10 uM >= 12) | CC(c1c[nH]c(-c2cc(Oc3c(F)cc4[nH]ccc4c3S(C)(=N)=O)ccc2F)n1)c1cccc(CCC(=O)O)c1F (single isomer, unassigned) [Example 136C, 3-(2-fluoro-3-(1-(2-(2-fluoro-5-((6-fluoro-4-(S-methylsulfonimidoyl)-1H-indol-5-yl)oxy)phenyl)-1H-imidazol-4-yl)ethyl)phenyl)propanoic acid] | A (A: T ≥ 10° C.)
4 | A (“A” refers to AUC @10 uM >= 12) | CC(Cc1cccc(C(C)c2cnc(-c3cc(Oc4c(F)cc5[nH]ccc5c4F)ccc3F)[nH]2)c1F)C(=O)O (single isomer, unassigned) [Example 137D, 3-(3-(1-(2-(5-((4,6-difluoro-1H-indol-5-yl)oxy)-2-fluorophenyl)-1H-imidazol-5-yl)ethyl)-2-fluorophenyl)-2-methylpropanoic acid] | A (A: T ≥ 10° C.)
5 | A (“A” refers to AUC @10 uM >= 12) | Cc1nc(-c2cc(Oc3c(F)cc4[nH]ccc4c3F)ccc2F)[nH]c1C(O)c1cccc(CCC(=O)O)c1F (single isomer, unassigned) [Example 180, 3-(3-((2-(5-((4,6-difluoro-1H-indol-5-yl)oxy)-2-fluorophenyl)-4-methyl-1H-imidazol-5-yl)(hydroxy)methyl)-2-fluorophenyl)propanoic acid] | A (A: T ≥ 10° C.)
6 | A (“A” refers to AUC @10 uM >= 12) | CC(c1nnc(-c2cc(Oc3c(F)cc4[nH]ccc4c3F)ccc2F)[nH]1)c1cccc(CCC(=O)O)c1F (single isomer, unassigned) [Example 252A, 3-(3-(1-(5-(5-((4,6-difluoro-1H-indol-5-yl)oxy)-2-fluorophenyl)-4H-1,2,4-triazol-3-yl)ethyl)-2-fluorophenyl)propanoic acid] | B (B: 5-10° C.)
7 | A (“A” refers to AUC @10 uM >= 12) | CC(c1cn(C)c(-c2cc(Oc3c(F)cc4[nH]ccc4c3F)ccc2F)n1)c1cccc(CCC(=O)O)c1F (single isomer, unassigned) [Example 278B, 3-(3-(1-(2-(5-((4,6-difluoro-1H-indol-5-yl)oxy)-2-fluorophenyl)-1-methyl-1H-imidazol-4-yl)ethyl)-2-fluorophenyl)propanoic acid] | B (B: 5-10° C.)

Second part, the compound before the results:

Row | Compound | TECC24 @ 10 μM over DMSO (AUC fold over DMSO) (CFTR) | DSLS NBD1/3D Human Stability delta-T (° C.) @ 100 (μM) (NBD1/3D)
8 | CC(c1cnc(-c2cc(Oc3c(F)cc4[nH]ccc4c3CP(C)(C)=O)ccc2F)[nH]1)c1cccc(CCC(=O)O)c1F (single isomer, unassigned) [Example 133B, 3-(3-(1-(2-(5-((4-((dimethylphosphoryl)methyl)-6-fluoro-1H-indol-5-yl)oxy)-2-fluorophenyl)-1H-imidazol-5-yl)ethyl)-2-fluorophenyl)propanoic acid] | C (“C” refers to AUC @ 10 uM <= 4) | A (A: T ≥ 10° C.)
9 | Cc1c(Oc2ccc(F)c(-c3ncc([C@H](C)c4cccc([C@@H]5C[C@H]5C(=O)O)c4F)[nH]3)c2)c(F)cc2[nH]ccc12 (single isomer, unassigned) [Example 139F, trans-2-(2-fluoro-3-(1-(2-(2-fluoro-5-((6-fluoro-4-methyl-1H-indol-5-yl)oxy)phenyl)-1H-imidazol-5-yl)ethyl)phenyl)cyclopropane-1-carboxylic acid] | B (“B” refers to AUC @10 uM between 4-12) | A (A: T ≥ 10° C.)
10 | CS(=O)(=O)c1c(Oc2cccc(-c3ccn(Cc4cccc(CCC(=O)O)c4)n3)c2)ccc2[nH]ccc12 [Example 40] | A (“A” refers to AUC @10 uM >= 12) | A (A: T ≥ 10° C.)
11 | CS(=O)(=O)c1c(Oc2ccc(F)c(-c3ncc(C4(c5cccc(CCC(=O)O)c5)CCOC4)[nH]3)c2)c(F)cc2[nH]ccc12 (stereo not drawn) [Example 45, 3-(3-(3-(2-(2-Fluoro-5-((6-fluoro-4-(methylsulfonyl)-1H-indol-5-yl)oxy)phenyl)-1H-imidazol-5-yl)tetrahydrofuran-3-yl)phenyl)propanoic acid] | B (“B” refers to AUC @10 uM between 4-12) | A (A: T ≥ 10° C.)
12 | CC(C#N)(c1cccc(CCC(=O)O)c1)c1c[nH]c(-c2cc(Oc3c(F)cc4[nH]ccc4c3CC(F)(F)F)ccc2F)n1 (stereo not drawn) [Example 52, 3-(3-(1-cyano-1-(2-(2-fluoro-5-((6-fluoro-4-(2,2,2-trifluoroethyl)-1H-indol-5-yl)oxy)phenyl)-1H-imidazol-4-yl)ethyl)phenyl)propanoic acid] | B (“B” refers to AUC @10 uM between 4-12) | B (B: 5-10° C.)
13 | CO[C@]1(C)C[C@@](c2cc(F)cc(CCC(=O)O)c2)(c2cnc(-c3cc(Oc4c(F)c(F)c5[nH]ccc5c4S(C)(=O)=O)ccc3F)[nH]2)C1 [Example 74, 3-(3-((1r,3r)-1-(2-(5-((6,7-difluoro-4-(methylsulfonyl)-1H-indol-5-yl)oxy)-2-fluorophenyl)-1H-imidazol-5-yl)-3-methoxy-3-methylcyclobutyl)-5-fluorophenyl)propanoic acid] | A (“A” refers to AUC @10 uM >= 12) | A (A: T ≥ 10° C.)
14 | CP(C)(=O)c1c(Oc2ccc(F)c(-c3ncc(C4(c5cc(F)cc(CCC(=O)O)c5)CC(F)(F)C4)[nH]3)c2)c(F)cc2[nH]ccc12 [Example 80, 3-(3-(1-(2-(5-((4-(dimethylphosphoryl)-6-fluoro-1H-indol-5-yl)oxy)-2-fluorophenyl)-1H-imidazol-5-yl)-3,3-difluorocyclobutyl)-5-fluorophenyl)propanoic acid] | C (“C” refers to AUC @ 10 uM <= 4) | A (A: T ≥ 10° C.)
15 | COC(=O)CCc1cccc(C(O)c2cnc(-c3cccc(Oc4c(F)cc5[nH]ccc5c4-c4nccs4)c3)[nH]2)c1 (stereo not drawn) [Example 86, Methyl 3-(3-((2-(3-((6-fluoro-4-(thiazol-2-yl)-1H-indol-5-yl)oxy)phenyl)-1H-imidazol-5-yl)(hydroxy)methyl)phenyl)propanoate] | C (“C” refers to AUC @ 10 uM <= 4) | C (C: ≤5° C.)
